Test results from ChEMBL document CHEMBL1201862, “PubChem BioAssay data set” (2004).
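Dose response: 5 concentrations. Exposure: 48 h. Format: 96-well plates. Endpoint: linear interpolation; highest concentration if not reached. GI50 marks 50% less growth.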 Calls of active or inactive are those of the source. No stated cut-off is given here; in the data, active = GI50 up to about 1.1 µM and inactive = higher.

Tests used:
Test in all cases: inhibition of tumour cell growth, NCI panel, 48 h
786-0 = system: 786-0
ACHN = system: ACHN
BT-549 = system: BT-549
DU-145 = system: DU-145
HCT-15 = system: HCT-15
HOP-62 = system: HOP-62
Hs-578T = system: Hs-578T
LOX IMVI = system: LOX IMVI
MDA-MB-231 = system: MDA-MB-231
NCI-H23 = system: NCI-H23
OVCAR-4 = system: OVCAR-4
SK-MEL-5 = system: SK-MEL-5
SK-OV-3 = system: SK-OV-3
SNB-19 = system: SNB-19
TK-10 = system: TK-10
UACC-257 = system: UACC-257
K562 = system: K562
OVCAR-3 = system: OVCAR-3
RPMI-8226 = system: RPMI-8226
SR = system: SR

Structure (SMILES)	GI50 (786-0)	GI50 (ACHN)	GI50 (BT-549)	GI50 (DU-145)	GI50 (HCT-15)	GI50 (HOP-62)	GI50 (Hs-578T)	GI50 (LOX IMVI)	GI50 (MDA-MB-231)	GI50 (NCI-H23)	GI50 (OVCAR-4)	GI50 (SK-MEL-5)	GI50 (SK-OV-3)	GI50 (SNB-19)	GI50 (TK-10)	GI50 (UACC-257)	GI50 (K562)	GI50 (OVCAR-3)	GI50 (RPMI-8226)	GI50 (SR)
COC(=O)C1(O)C(c2ccccc2)NC2(C)CCCC21 (stereo not drawn)	> 100 µM (inactive)	> 100 µM (inactive)	> 100 µM (inactive)	> 100 µM (inactive)	> 100 µM	> 100 µM (inactive)	> 100 µM (inactive)	> 100 µM (inactive)	> 100 µM (inactive)	> 100 µM (inactive)	> 100 µM (inactive)	> 100 µM (inactive)	> 100 µM (inactive)	> 100 µM (inactive)	> 100 µM (inactive)	> 100 µM (inactive)	–	–	–	–
CC1C[C@]2(C)C(=O)N(c3ccccc3)C(=N)[C@@H]2N(C)c2ccccc21 (stereo partly drawn)	> 100 µM (inactive)	> 100 µM (inactive)	–	> 100 µM (inactive)	> 100 µM	> 100 µM (inactive)	> 100 µM (inactive)	> 100 µM (inactive)	> 100 µM (inactive)	> 100 µM (inactive)	> 100 µM (inactive)	> 100 µM (inactive)	–	> 100 µM (inactive)	> 100 µM (inactive)	> 100 µM (inactive)	> 100 µM (inactive)	70.1 µM (inactive)	> 100 µM (inactive)	> 100 µM (inactive)
Cc1ccc(NC(=O)/C(=N/N(C)C)C(C2OC(=O)c3ccccc32)[N+](=O)[O-])cc1 (stereo not drawn)	> 100 µM (inactive)	> 100 µM (inactive)	> 100 µM (inactive)	–	> 100 µM	> 100 µM (inactive)	> 100 µM (inactive)	> 100 µM (inactive)	> 100 µM (inactive)	> 100 µM (inactive)	> 100 µM (inactive)	> 100 µM (inactive)	> 100 µM (inactive)	–	> 100 µM (inactive)	> 100 µM (inactive)	> 100 µM (inactive)	> 100 µM (inactive)	> 100 µM (inactive)	–
CSc1ncnc2c1ncn2CCC#N	> 100 µM (inactive)	> 100 µM (inactive)	–	> 100 µM (inactive)	–	> 100 µM (inactive)	> 100 µM (inactive)	> 100 µM (inactive)	> 100 µM (inactive)	> 100 µM (inactive)	> 100 µM (inactive)	> 100 µM (inactive)	> 100 µM (inactive)	> 100 µM (inactive)	> 100 µM (inactive)	> 100 µM (inactive)	> 100 µM (inactive)	> 100 µM (inactive)	> 100 µM (inactive)	> 100 µM (inactive)
CCOC(=O)c1cn(-c2ccccc2)c(=S)n2c1nc1ccccc12	43.4 µM (inactive)	56.1 µM (inactive)	41.8 µM (inactive)	63.2 µM (inactive)	41.5 µM	53.2 µM (inactive)	–	> 67.1 µM (inactive)	> 63.7 µM (inactive)	45.7 µM (inactive)	37.4 µM (inactive)	23.1 µM (inactive)	> 100 µM (inactive)	> 66.2 µM (inactive)	96.8 µM (inactive)	40 µM (inactive)	18.3 µM (inactive)	52.2 µM (inactive)	18.1 µM (inactive)	13.6 µM (inactive)
COc1cccc(C=C(C#N)C#N)c1OC	> 100 µM (inactive)	> 100 µM (inactive)	> 100 µM (inactive)	> 100 µM (inactive)	> 100 µM	> 100 µM (inactive)	–	–	–	> 100 µM (inactive)	> 100 µM (inactive)	> 100 µM (inactive)	12.3 µM (inactive)	> 100 µM (inactive)	> 100 µM (inactive)	> 100 µM (inactive)	> 100 µM (inactive)	> 100 µM (inactive)	43.5 µM (inactive)	> 100 µM (inactive)
O=C(Nc1ccccc1)OCCN=C1c2ccccc2C(Br)C(Br)c2ccccc21 (stereo not drawn)	2.82 µM (inactive)	10.2 µM (inactive)	–	9.16 µM (inactive)	3.85 µM	15.1 µM (inactive)	12.4 µM (inactive)	5.08 µM (inactive)	15.2 µM (inactive)	10.4 µM (inactive)	5.38 µM (inactive)	12.3 µM (inactive)	15.7 µM (inactive)	14.9 µM (inactive)	4.48 µM (inactive)	6.59 µM (inactive)	2.8 µM (inactive)	6.12 µM (inactive)	4.37 µM (inactive)	–
O=C1C=C(Nc2ccc(S(=O)(=O)Nc3nccs3)cc2)c2ccccc2C1=O	36.6 µM (inactive)	21 µM (inactive)	20.7 µM (inactive)	–	23.7 µM	15.4 µM (inactive)	25.8 µM (inactive)	19.8 µM (inactive)	26.5 µM (inactive)	35.6 µM (inactive)	32.9 µM (inactive)	19.9 µM (inactive)	> 100 µM (inactive)	29.4 µM (inactive)	> 100 µM (inactive)	31.6 µM (inactive)	12.1 µM (inactive)	17 µM (inactive)	37.3 µM (inactive)	39.5 µM (inactive)
O=C(Nc1ccccc1F)c1cc2ccc(O)cc2o/c1=N\c1ccccc1F	1.79 µM (inactive)	2.23 µM (inactive)	2.83 µM (inactive)	1.95 µM (inactive)	2.47 µM	2.19 µM (inactive)	2.33 µM (inactive)	2.57 µM (inactive)	–	2.17 µM (inactive)	1.85 µM (inactive)	1.77 µM (inactive)	25.4 µM (inactive)	4.25 µM (inactive)	–	2.74 µM (inactive)	2.15 µM (inactive)	2.1 µM (inactive)	2.04 µM (inactive)	1.87 µM (inactive)
CCOC(=O)C(=Cn1c(=S)[nH]c2ccc([N+](=O)[O-])cc21)C(=O)OCC	> 100 µM (inactive)	> 100 µM (inactive)	–	> 100 µM (inactive)	–	> 100 µM (inactive)	90.4 µM (inactive)	> 100 µM (inactive)	> 100 µM (inactive)	> 100 µM (inactive)	> 100 µM (inactive)	> 100 µM (inactive)	> 100 µM (inactive)	> 100 µM (inactive)	> 100 µM (inactive)	> 100 µM (inactive)	> 100 µM (inactive)	> 100 µM (inactive)	> 100 µM (inactive)	> 100 µM (inactive)
CCOC(=O)C1(C/C=C/CBr)CCc2ccccc2C1=O (stereo not drawn)	16.2 µM (inactive)	13.6 µM (inactive)	16.7 µM (inactive)	14 µM (inactive)	19.7 µM	16.2 µM (inactive)	30.8 µM (inactive)	6.37 µM (inactive)	18.2 µM (inactive)	16.8 µM (inactive)	13.6 µM (inactive)	12 µM (inactive)	19 µM (inactive)	14.4 µM (inactive)	10.4 µM (inactive)	15.9 µM (inactive)	–	–	–	–
CCOC(=O)/C(=C\NC(C)(C)C)c1nc2ccccc2o1	24.6 µM (inactive)	27.6 µM (inactive)	26.7 µM (inactive)	43.4 µM (inactive)	36.6 µM	> 100 µM (inactive)	28.3 µM (inactive)	27.4 µM (inactive)	–	34.9 µM (inactive)	31.4 µM (inactive)	12.8 µM (inactive)	92 µM (inactive)	64 µM (inactive)	27.2 µM (inactive)	20.1 µM (inactive)	–	35.4 µM (inactive)	22.2 µM (inactive)	25.6 µM (inactive)
O/N=C1\CSc2ccccc2C1	> 100 µM (inactive)	> 100 µM (inactive)	–	> 100 µM (inactive)	> 100 µM	> 100 µM (inactive)	41.8 µM (inactive)	> 100 µM (inactive)	> 100 µM (inactive)	> 100 µM (inactive)	> 100 µM (inactive)	> 100 µM (inactive)	> 100 µM (inactive)	> 100 µM (inactive)	> 100 µM (inactive)	> 100 µM (inactive)	> 100 µM (inactive)	> 100 µM (inactive)	> 100 µM (inactive)	94.4 µM (inactive)
C(=C\c1ccco1)/c1cccc(/C=C/c2ccco2)n1	> 50 µM (inactive)	> 50 µM (inactive)	> 50 µM (inactive)	> 50 µM (inactive)	> 50 µM	> 50 µM (inactive)	> 50 µM (inactive)	> 50 µM (inactive)	–	> 50 µM (inactive)	> 50 µM (inactive)	> 50 µM (inactive)	> 50 µM (inactive)	> 50 µM (inactive)	> 50 µM (inactive)	> 50 µM (inactive)	> 50 µM (inactive)	> 50 µM (inactive)	> 50 µM (inactive)	33.6 µM (inactive)
O=C(Nc1ccccc1)OC1OC(COC(=O)c2ccccc2)C(OC(=O)c2ccccc2)C1OS(=O)(=O)c1ccc([N+](=O)[O-])cc1 (stereo not drawn)	> 100 µM (inactive)	> 100 µM (inactive)	> 100 µM (inactive)	> 100 µM (inactive)	> 100 µM	> 100 µM (inactive)	78.7 µM (inactive)	> 100 µM (inactive)	–	> 100 µM (inactive)	> 100 µM (inactive)	> 100 µM (inactive)	> 100 µM (inactive)	> 100 µM (inactive)	> 100 µM (inactive)	> 100 µM (inactive)	> 100 µM (inactive)	74.6 µM (inactive)	> 100 µM (inactive)	> 100 µM (inactive)
OC1CCCCCCCCCCC1SCCCCl (stereo not drawn)	> 100 µM (inactive)	> 100 µM (inactive)	–	> 100 µM (inactive)	> 100 µM	> 100 µM (inactive)	> 100 µM (inactive)	> 100 µM (inactive)	> 100 µM (inactive)	> 100 µM (inactive)	> 100 µM (inactive)	> 100 µM (inactive)	> 100 µM (inactive)	> 100 µM (inactive)	> 100 µM (inactive)	> 100 µM (inactive)	> 100 µM (inactive)	> 100 µM (inactive)	> 100 µM (inactive)	> 100 µM (inactive)
